Measurements: US10689414B2 (Agios Pharmaceuticals, Inc., priority 2013, dated 2020)

Tested on: U87MG cells
Test: Cellular assay, inhibition of 2-HG production in U87MG cells
Assay type: cell-based
Conditions: Homo sapiens, U-87 MG, 48 h
In short: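 HT1080 or U87MG cells (U87MG kept with 500 ug/mL G418) seeded at 5000 cells/well and treated with compound at 0.2% final DMSO. Incubated 48 h at 37 °C. 2-HG inhibition determined by LC-MS. Viability read by CellTiter-Glo luminescence at 72 h post-dose.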

Work on `CS(=O)(=O)c1cccc(N(C(=O)[C@@H]2CCC(=O)N2c2cc(C#N)ccn2)C(C(=O)NC2CCC(F)(F)CC2)c2ccccc2Cl)c1` (stereo partly drawn) [Compound 95, (2S)—N-(1-(2-Chlorophenyl)-2-((4,4-difluorocyclohexyl)amino)-2-oxoethyl)-1-(4-cyanopyridin-2-yl)-N-(3-(methylsulfonyl)phenyl)-5-oxopyrrolidine-2-carboxamide] yielded an IC50 of under 100 nM.
In the case of `O=C(NC1CC(F)(F)C1)[C@H](c1ccccc1Cl)N(C(=O)[C@@H]1CCC(=O)N1c1cnccn1)c1cccc(F)c1` [Compound 18], the IC50 is reported as under 100 nM.
`O=C(NC1CC(F)(F)C1)[C@H](c1ccccc1Cl)N(C(=O)[C@@H]1CCC(=O)N1c1cc(Cl)ccn1)c1cccc(F)c1` [Compound 33] gave an IC50 of 100 to 500 nM.
Compound `N#Cc1ccnc(N2C(=O)[C@@H](O)C[C@H]2C(=O)N(c2cc(F)cc(F)c2)[C@H](C(=O)NC2CCC(F)(F)CC2)c2ccccc2Cl)c1` [Compound 174, (2S,4S)—N—((S)-1-(2-Chlorophenyl)-2-((4,4-difluorocyclohexyl)amino)-2-oxoethyl)-1-(4-cyanopyridin-2-yl)-N-(3,5-difluorophenyl)-4-hydroxy-5-oxopyrrolidine-2-carboxamide] has an IC50 of under 100 nM.
`N#Cc1ccnc(N2C(=O)[C@H](O)C[C@H]2C(=O)N(c2cc(F)cc(F)c2)[C@H](C(=O)NC2CC(F)(F)C2)c2ccccc2Cl)c1` [Compound 115, (2S,4R)—N—((S)-1-(2-Chlorophenyl)-2-((3,3-difluorocyclobutyl)amino)-2-oxoethyl)-1-(4-cyanopyridin-2-yl)-N-(3,5-difluorophenyl)-4-hydroxy-5-oxopyrrolidine-2-carboxamide] gave an IC50 of under 100 nM.
Work on `N#Cc1cc(F)cc(N(C(=O)[C@@H]2CCC(=O)N2c2cc(C#N)ccn2)[C@H](C(=O)NC2CCC(F)(F)CC2)c2ccccc2Cl)c1` [Compound 184, (S)—N—((S)-1-(2-Chlorophenyl)-2-(4,4-difluorocyclohexylamino)-2-oxoethyl)-N-(3-cyano-5-fluorophenyl)-1-(4-cyanopyridin-2-yl)-5-oxopyrrolidine-2-carboxamide] yielded an IC50 of under 100 nM.
`N#Cc1cc(F)cc(N(C(=O)[C@@H]2CCC(=O)N2c2cc(C#N)ccn2)[C@H](C(=O)NC2CC(F)(F)C2)c2ccccc2Cl)c1` [Compound 177, (S)—N—((S)-1-(2-Chlorophenyl)-2-(3,3-difluorocyclobutylamino)-2-oxoethyl)-N-(3-cyano-5-fluorophenyl)-1-(4-cyanopyridin-2-yl)-5-oxopyrrolidine-2-carboxamide] gave an IC50 of under 100 nM.
`N#Cc1ccnc(N2C(=O)[C@H](O)C[C@H]2C(=O)N(c2cccc(F)c2)[C@H](C(=O)NC2CC(F)(F)C2)c2ccccc2Cl)n1` [Compound 120, (2S,4R)—N—((S)-1-(2-Chlorophenyl)-2-((3,3-difluorocyclobutyl)amino)-2-oxoethyl)-1-(4-cyanopyrimidin-2-yl)-N-(3-fluorophenyl)-4-hydroxy-5-oxopyrrolidine-2-carboxamide] showed an IC50 of 100 to 500 nM.
For `O=C(NC1CC(F)(F)C1)C(c1ccccc1Cl)N(C(=O)[C@@H]1CCC(=O)N1c1ccccc1)c1cccc(F)c1` (stereo partly drawn) [Compound 23], the IC50 was 100 to 500 nM.
`N#Cc1ccnc(N2C(=O)CC[C@H]2C(=O)N(c2cc(F)cc(F)c2)[C@H](C(=O)NC2CC(F)(F)C2)c2ccccc2Cl)c1F` [Compound 88, (S)—N—((S)-1-(2-Chlorophenyl)-2-((3,3-difluorocyclobutyl)amino)-2-oxoethyl)-1-(4-cyano-3-fluoropyridin-2-yl)-N-(3,5-difluorophenyl)-5-oxopyrrolidine-2-carboxamide] was tested, and the IC50 was under 100 nM.
Work on `N#Cc1ccnc(N2C(=O)CC[C@H]2C(=O)N(c2cncc(F)c2)C(C(=O)NC2CC(F)(F)C2)c2ccccc2Cl)c1` (stereo partly drawn) [Compound 91] yielded an IC50 of under 100 nM.
Compound `N#Cc1ccnc(N2C(=O)[C@H](O)C[C@H]2C(=O)N(c2cc(F)cc(F)c2)[C@@H](C(=O)NC2CCC(F)(F)CC2)c2ccccc2Cl)n1` [Compound 126, (2S,4R)—N—((R)-1-(2-Chlorophenyl)-2-(4,4-difluorocyclohexylamino)-2-oxoethyl)-1-(4-cyanopyrimidin-2-yl)-N-(3,5-difluorophenyl)-4-hydroxy-5-oxopyrrolidine-2-carboxamide] has an IC50 of 100 to 500 nM.
`O=C(NC1CCCCC1)[C@H](c1ccccc1Cl)N(C(=O)[C@@H]1CCC(=O)N1c1ncccn1)c1cccc(F)c1` [Compound 7] gave an IC50 of under 100 nM.
`N#Cc1ccnc(N2C(=O)CC[C@H]2C(=O)N(c2cccc(F)c2)[C@H](C(=O)NC2CCC(F)(F)CC2)c2ccccc2Cl)c1F` [Compound 83, (S)—N—((S)-1-(2-Chlorophenyl)-2-((4,4-difluorocyclohexyl)amino)-2-oxoethyl)-1-(4-cyano-3-fluoropyridin-2-yl)-N-(3-fluorophenyl)-5-oxopyrrolidine-2-carboxamide] was tested, and the IC50 was under 100 nM.
`N#Cc1cc(C#N)cc(N(C(=O)[C@@H]2CCC(=O)N2c2cc(C#N)ccn2)C(C(=O)NC2CC(F)(F)C2)c2ccccc2Cl)c1` (stereo partly drawn) [Compound 191, (2S)—N-(1-(2-Chlorophenyl)-2-((3,3-difluorocyclobutyl)amino)-2-oxoethyl)-1-(4-cyanopyridin-2-yl)-N-(3,5-dicyanophenyl)-5-oxopyrrolidine-2-carboxamide] was tested, and the IC50 was under 100 nM.
`N#Cc1cccc(N(C(=O)[C@@H]2CCC(=O)N2c2nccc(C#N)n2)[C@H](C(=O)NC2CC(F)(F)C2)c2ccccc2Cl)c1` [Compound 167, (S)—N—((S)-1-(2-Chlorophenyl)-2-((3,3-difluorocyclobutyl)amino)-2-oxoethyl)-N-(3-cyanophenyl)-1-(4-cyanopyrimidin-2-yl)-5-oxopyrrolidine-2-carboxamide] showed an IC50 of under 100 nM.
With `N#Cc1ccnc(N2C(=O)CC[C@H]2C(=O)N(c2cc(F)cc(F)c2)[C@H](C(=O)NC2CCC(F)(F)CC2)c2ccccc2Cl)c1` [Compound 81, (2S)—N-(1-(2-Chlorophenyl)-2-(4,4-difluorocyclohexylamino)-2-oxoethyl)-1-(4-cyanopyridin-2-yl)-N-(3,5-difluorophenyl)-5-oxopyrrolidine-2-carboxamide] the IC50 was under 100 nM.
In the case of `CN1CC(=O)N(c2cc(C#N)ccn2)[C@H](C(=O)N(c2cc(F)cc(F)c2)[C@H](C(=O)NC2CC(F)(F)C2)c2ccccc2Cl)C1` [Compound 101, (S)—N—((S)-1-(2-chlorophenyl)-2-((3,3-difluorocyclobutyl)amino)-2-oxoethyl)-1-(4-cyanopyridin-2-yl)-N-(3,5-difluorophenyl)-4-methyl-6-oxopiperazine-2-carboxamide], the IC50 is reported as under 100 nM.
For `N#Cc1cc(F)cc(N(C(=O)[C@@H]2CCC(=O)N2c2cc(C#N)ccn2)[C@H](C(=O)NC2CC(F)(F)C2)c2ccccc2F)c1` [Compound 207, (S)—N-(3-Cyano-5-fluorophenyl)-1-(4-cyanopyridin-2-yl)-N—((S)-2-((3,3-difluorocyclobutyl)amino)-1-(2-fluorophenyl)-2-oxoethyl)-5-oxopyrrolidine-2-carboxamide], the IC50 was under 100 nM.
`CCOC(=O)CN1C[C@@H](C(=O)N(c2cccc(F)c2)C(C(=O)NC2CC(F)(F)C2)c2ccccc2Cl)N(c2nccc(C#N)n2)C1=O` (stereo partly drawn) [Compound 111, Ethyl 2-((4S)-4-((1-(2-chlorophenyl)-2-((3,3-difluorocyclobutyl)amino)-2-oxoethyl)(3-fluorophenyl)carbamoyl)-3-(4-cyanopyrimidin-2-yl)-2-oxoimidazolidin-1-yl)acetate] showed an IC50 of under 100 nM.
`N#Cc1ccnc(N2C(=O)CC[C@H]2C(=O)N(c2ccc3[nH]ncc3c2)[C@H](C(=O)NC2CCC(F)(F)CC2)c2ccccc2Cl)c1` [Compound 203, (S)—N—((S)-1-(2-Chlorophenyl)-2-((4,4-difluorocyclohexyl)amino)-2-oxoethyl)-1-(4-cyanopyridin-2-yl)-N-(1H-indazol-5-yl)-5-oxopyrrolidine-2-carboxamide] was tested, and the IC50 was under 100 nM.
Work on `CC(C)(O)c1cccc(N(C(=O)[C@@H]2CCC(=O)N2c2cc(C#N)ccn2)[C@H](C(=O)NC2CC(F)(F)C2)c2ccccc2Cl)c1` [Compound 179, (S)—N—((S)-1-(2C)-2-((3,3-difluorocyclobutyl)amino)-2-oxoethyl)-1-(4-cyanopyridin-2-yl)-N-(3-(2-hydroxypropan-2-yl)phenyl)-5-oxopyrrolidine-2-carboxamide] yielded an IC50 of under 100 nM.
Work on `N#Cc1ccnc(N2C(=O)CC[C@H]2C(=O)N(c2cccc(F)c2)[C@H](C(=O)NC2CC(F)(F)C2)c2ccccc2Cl)c1F` [Compound 82, (S)—N—((S)-1-(2-Chlorophenyl)-2-((3,3-difluorocyclobutyl)amino)-2-oxoethyl)-1-(4-cyano-3-fluoropyridin-2-yl)-N-(3-fluorophenyl)-5-oxopyrrolidine-2-carboxamide] yielded an IC50 of under 100 nM.
`N#Cc1ccnc(N2C(=O)OCC[C@H]2C(=O)N(c2cccc(F)c2)C(C(=O)NC2CC(F)(F)C2)c2ccccc2Cl)c1` (mixture of isomers) [Compound 90, (4S)—N-(1-(2-Chlorophenyl)-2-(3,3-difluorocyclobutylamino)-2-oxoethyl)-3-(4-cyanopyridin-2-yl)-N-(3-fluorophenyl)-2-oxo-1,3-oxazinane-4-carboxamide] was tested, and the IC50 was under 100 nM.
With `N#Cc1ccnc(N2C(=O)CCC[C@H]2C(=O)N(c2cccc(F)c2)[C@H](C(=O)NC2CCC(F)(F)CC2)c2ccccc2Cl)c1` [Compound 75, (S)—N—((S)-1-(2-Chlorophenyl)-2-((4,4-difluorocyclohexyl)amino)-2-oxoethyl)-1-(4-cyano-pyridin-2-yl)-N-(3-fluorophenyl)-6-oxopiperidine-2-carboxamide] the IC50 was under 100 nM.
With `N#Cc1ccnc(N2C(=O)CC[C@H]2C(=O)N(c2cccc(OC(F)(F)F)c2)C(C(=O)NC2CC(F)(F)C2)c2ccccc2Cl)n1` (stereo partly drawn) [Compound 180, (2S)—N-(1-(2-Chlorophenyl)-2-((3,3-difluorocyclobutyl)amino)-2-oxoethyl)-1-(4-cyanopyrimidin-2-yl)-5-oxo-N-(3-(trifluoromethoxy)phenyl)pyrrolidine-2-carboxamide] the IC50 was under 100 nM.
`N#Cc1ccnc(N2C(=O)N(CCO)C[C@H]2C(=O)N(c2cccc(F)c2)C(C(=O)NC2CC(F)(F)C2)c2ccccc2Cl)c1` (stereo partly drawn) [Compound 112, (4S)—N-(1-(2-Chlorophenyl)-2-(3,3-difluorocyclobutyl-amino)-2-oxoethyl)-3-(4-cyanopyridin-2-yl)-N-(3-fluorophenyl)-1-(2-hydroxyeth-yl)-2-oxoimidazolidine-4-carboxamide] showed an IC50 of under 100 nM.
